The values that follow are results of earlier work, collected in patent US20220331342A1, “TREATMENT OF TRAUMATIC ENCEPHALOPATHY BY FIBROBLASTS AND THERAPEUTIC ADJUVANTS” (FIGENE, LLC, priority 2019, published 2022).

The test system of data set [1] is mixed spinal cord (SC) cultures. As to conditions: excitotoxins.
For data set [2], the system named is SOD1 mutant mice. As to conditions: single therapy.

With `CN(C)c1ccc(O)c2c1C[C@H]1C[C@H]3[C@H](N(C)C)C(O)=C(C(N)=O)C(=O)[C@@]3(O)C(O)=C1C2=O` [Minocycline, minocycline], the “first-pass metabolism when absorbed from the human gastrointestinal tract” value is on record as “substantial first-pass metabolism”.
With `COc1cccc(-c2cc(=O)c3ccccc3o2)c1N` [PD98059], in data set [1], the “neuronal survival on treatment with MAPK inhibitors” value is “not”.
`Nc1nc2ccc(OC(F)(F)F)cc2s1` [Riluzole, riluzole]: the onset of disease entry in data set [2] is given as “without affecting”.
Consider `C[S+]([O-])c1ccc(-c2nc(-c3ccncc3)c(-c3ccc(F)cc3)[nH]2)cc1` (stereo not shown) [SB203580], for which the “neuronal survival on treatment with MAPK inhibitors” value in data set [1] is listed as “increased neuronal survival”.
